Key:
Format in all cases: functional, cell-based
HL-60 = assay: Cytotoxicity against human HL60 cells after 5 days by MTT assay; conditions: HL-60, 120 h
[1] = Cytotoxicity against human BGC cells after 5 days by MTT assay; conditions: 120 h
HCT-8 = assay: Cytotoxicity against human HCT8 cells after 5 days by MTT assay; conditions: HCT-8, 120 h
Bel-7402 = assay: Cytotoxicity against human Bel7402 cells after 5 days by MTT assay; conditions: Bel-7402, 120 h

SMILES	IC50 (HL-60)	IC50 [1]	IC50 (HCT-8)	IC50 (Bel-7402)
CCCCCCCCCCCC[C@@H](O)[C@H]1CC[C@H]([C@H](O)CCCCCCCCCCC[C@H](O)CCC2=C[C@H](C)OC2=O)O1 [TONKINECIN]	0.52 µM	5.1 µM	0.38 µM	1.5 µM
COc1cc([C@@H]2c3cc4c(cc3[C@@H](O[C@@H]3O[C@@H]5CO[C@@H](C)O[C@H]5[C@H](O)[C@H]3O)[C@H]3COC(=O)[C@H]23)OCO4)cc(OC)c1O [ETOPOSIDE]	0.16 µM	6.7 µM	6.4 µM	1.9 µM
